Experimental data published in US9125388B2, “Biological control” (Isis Innovation Limited, priority 1999, dated 2015).

What was measured:
Type in all cases: in vivo, Drosophila melanogaster
bnk-tTa × tRe-Nipp1Dm = test: Tc-repressible lethality using an embryo-specific promoter (Table 2), adult progeny by sex; conditions: embryos laid on this food for 9 days
Excerpt: Flies were reared on standard yeast/cornmeal/agar food with a yeast concentration of 45-50 gl^−1. Tc-containing food was made to the same recipe with the addition of tetracycline hydrochloride (Sigma-Aldrich) solution to the appropriate final concentration.
As ectopic Ras64B^V12 apparently lacks embryonic toxicity under the conditions we are using, we placed a different toxic gene under the control of tRe. We chose to use Nipp1Dm, a Drosophila homolog of mammalian NIPP-1, a nuclear inhibitor of protein phosphatase type 1 (Beullens et al., (1992), J. Biol. Chem. 267, 16538-16544; Van Eynde et al., (1995), J Biol Chem 270, 28068-74). NIPP1 has several advantages as a “killer gene” in this system. Flies carrying homozygous insertions of bnk-tTa or tRe-Nipp1 were crossed to each other. […] Furthermore, F1 survival was not affected by the presence or absence of Tc in the media on which the F1 were raised. We have therefore constructed an efficient dominant lethal genetic system repressible by parental dietary Tc.
Males homozygous for bnk-tTa were mated with females homozygous for either tRe-Ras64B^V12 or tRe-Nipp1Dm. These flies were raised on media lacking Tc, but before mating were placed on food containing various concentrations of Tc. They were allowed to lay embryos on this food for 9 days, and then the parents were removed. Their adult progeny of each sex were counted.

[1] = tested on: (Female) Sxlp^e tTa^(A) × tRe lacZ^(III) (Male); test: Reporter crosses at 25° C., embryos stained for lacZ
Excerpt: As with “single chromosome crosses”, ten to fifteen virgin females homozygous for the tTA construct and five to ten young males homozygous for the tRe construct were placed on food containing or lacking a tetracycline supplement.

[2] = tested on: Hsp26 tTa, tRe Msl-2^Nopu on the 2nd chromosome; test: Recombinant chromosome experiments: parents raised on supplement, progeny on normal food, adults by sex (25, 18 or 29° C.)
Procedure: (§1) 40-45 young females and 20-25 young males raised at 25° C. upon food with the indicated tetracycline supplement were allowed to mate, then transferred to normal (tetracycline-free) food after 3-4 days. These flies were transferred to fresh vials of normal food every day for 12 days, then removed on the 13th day. All the vials were incubated at 25° C. while the progeny developed. The numbers of male and female progeny emerging as adults in each vial were recorded.
(§2) A standard range of additive concentrations were used in the following experiments (0.05-20 μg/ml). […] (=“not done”)
(§3) All the preceding experiments were performed at 25° C., the standard temperature for Drosophila culture. However, the insects in the wild would clearly be exposed to varying temperatures, so we investigated the extent to which the efficiency of the system is affected by temperature. As with the recombinant chromosome experiments, 40-45 young virgin females and 20-25 young males raised at 25° C. upon food with the indicated tetracycline supplement were allowed to mate, then transferred to normal (tetracycline-free) food after 3-4 days. These flies were transferred to fresh vials of normal food every day. The numbers of male and female progeny emerging as adults in each vial were recorded. These experiments were performed at either 18° C. or 29° C.

[3] = tested on: Yp3 tTa, tRe Msl-2^Nopu on the 2nd chromosome; test: as above
Procedure: as §1, §2, §3

[4] = tested on: Sxl^pe-tTA, tRE-Msl-2^Nopu on the X chromosome; test: as above; conditions: for Female progeny per daily vial / Female progeny Total / Male progeny Total: 25° C.; for Female progeny per daily vial: Day 1-12 on tetracycline-free food; for Female progeny Total / Male progeny Total: Day 1-12 total
Procedure: as §1, §2, §3

[5] = tested on: Sxlp^e tTa, tRe Msl-1^Mpu on the X chromosome; test: as above
Procedure: as §1, §2, §3

[6] = parents on food containing Tc 0.1 μg/ml
[7] = parents on food containing Tc 1.0 μg/ml
[8] = parents raised on tetracycline 0.1 μg/ml, 18° C.
[9] = parents raised on tetracycline 0.1 μg/ml, 29° C.
[10] = parents raised on tetracycline 1 μg/ml, 18° C.
[11] = parents raised on tetracycline 1 μg/ml, 29° C.
[12] = parents raised on tetracycline 5 μg/ml, 18° C.
[13] = parents raised on tetracycline 5 μg/ml, 29° C.
[14] = parents raised on Tet. 0.1 μg/ml
[15] = parents raised on Tet. 20 μg/ml
[16] = parents raised on Tet. 100 μg/ml
[17] = parents raised on Tet. 500 μg/ml
[18] = parents raised on Tet. 1000 μg/ml
[19] = parents raised on Tet. 2000 μg/ml

Compound: CN(C)[C@@H]1C(O)=C(C(N)=O)C(=O)[C@@]2(O)C(O)=C3C(=O)c4c(O)cccc4[C@@](C)(O)[C@H]3C[C@@H]12 [Tetracycline, tetracycline]
- Females, adult progeny (bnk-tTa × tRe-Nipp1Dm; [6]): 58
- Males, adult progeny (bnk-tTa × tRe-Nipp1Dm; [6]): 60
- Females, adult progeny (bnk-tTa × tRe-Nipp1Dm; [7]): 82
- Males, adult progeny (bnk-tTa × tRe-Nipp1Dm; [7]): 78
- LacZ negative Total ([1]; Tetracycline 0.1 μg/ml in food): 709
- LacZ positive Total ([1]; Tetracycline 0.1 μg/ml in food): 0
- LacZ negative Total ([1]; Tetracycline 1 μg/ml in food): 739
- LacZ positive Total ([1]; Tetracycline 1 μg/ml in food): 0
- LacZ negative Total ([1]; Tetracycline 5 μg/ml in food): 651
- LacZ positive Total ([1]; Tetracycline 5 μg/ml in food): 0
- Female progeny emerging as adults [2, 8]: 8
- Male progeny emerging as adults [2, 8]: 832
- Female progeny emerging as adults [2, 9]: 0
- Male progeny emerging as adults [2, 9]: 696
- Female progeny emerging as adults [2, 10]: 7
- Male progeny emerging as adults [2, 10]: 879
- Female progeny emerging as adults [2, 11]: 0
- Male progeny emerging as adults [2, 11]: 658
- Female progeny emerging as adults [2, 12]: 4
- Male progeny emerging as adults [2, 12]: 818
- Female progeny emerging as adults [2, 13]: 0
- Male progeny emerging as adults [2, 13]: 711
- Female progeny emerging as adults [3, 8]: 8
- Male progeny emerging as adults [3, 8]: 1152
- Female progeny emerging as adults [3, 9]: 0
- Male progeny emerging as adults [3, 9]: 765
- Female progeny emerging as adults [3, 10]: 12
- Male progeny emerging as adults [3, 10]: 1122
- Female progeny emerging as adults [3, 11]: 0
- Male progeny emerging as adults [3, 11]: 702
- Female progeny emerging as adults [3, 12]: 3
- Male progeny emerging as adults [3, 12]: 1225
- Female progeny emerging as adults [3, 13]: 0
- Male progeny emerging as adults [3, 13]: 773
- Female progeny per daily vial [4, 14]: 0
- Female progeny Total [4, 14]: 0
- Male progeny Total [4, 14]: 1464
- Female progeny per daily vial ([4]; parents raised on Tet. 1 μg/ml): 0
- Female progeny Total ([4]; parents raised on Tet. 1 μg/ml): 0
- Male progeny Total ([4]; parents raised on Tet. 1 μg/ml): 1527
- Female progeny per daily vial ([4]; parents raised on Tet. 5 μg/ml): 0
- Female progeny Total ([4]; parents raised on Tet. 5 μg/ml): 0
- Male progeny Total ([4]; parents raised on Tet. 5 μg/ml): 1535
- Female progeny per daily vial [4, 15]: 0
- Female progeny Total [4, 15]: 0
- Male progeny Total [4, 15]: 1243
- Female progeny per daily vial [4, 16]: 0
- Female progeny Total [4, 16]: 0
- Male progeny Total [4, 16]: 1483
- Female progeny Total [4, 17]: 2
- Male progeny Total [4, 17]: 1625
- Female progeny Total [4, 18]: 29
- Male progeny Total [4, 18]: 1402
- Female progeny Total [4, 19]: 44
- Male progeny Total [4, 19]: 1543
- Female progeny emerging as adults [4, 8]: 6
- Male progeny emerging as adults [4, 8]: 695
- Female progeny emerging as adults [4, 9]: 0
- Male progeny emerging as adults [4, 9]: 682
- Female progeny emerging as adults [4, 10]: 8
- Male progeny emerging as adults [4, 10]: 816
- Female progeny emerging as adults [4, 11]: 0
- Male progeny emerging as adults [4, 11]: 804
- Female progeny emerging as adults [4, 12]: 8
- Male progeny emerging as adults [4, 12]: 785
- Female progeny emerging as adults [4, 13]: 0
- Male progeny emerging as adults [4, 13]: 648
- Female progeny emerging as adults [5, 8]: 8
- Male progeny emerging as adults [5, 8]: 840
- Female progeny emerging as adults [5, 9]: 0
- Male progeny emerging as adults [5, 9]: 732
- Female progeny emerging as adults [5, 10]: 5
- Male progeny emerging as adults [5, 10]: 927
- Female progeny emerging as adults [5, 11]: 0
- Male progeny emerging as adults [5, 11]: 771
- Female progeny emerging as adults [5, 12]: 8
- Male progeny emerging as adults [5, 12]: 837
- Female progeny emerging as adults [5, 13]: 0
- Male progeny emerging as adults [5, 13]: 816
